Assay results published in patent US20070149456A1, “Epithelial sodium channel inhibiting agents and uses therefor” (University of Pittsburgh, priority 2005, published 2007).
“Also recorded” adds a separate entry of the source.

Target: T1, wild-type ENaC (Mus musculus, UniProt Q61180+Q9WU38+Q9WU39, DEL206-231)
T1 construct: expressed in transfected cells; host or cells: Xenopus laevis oocytes (cRNA injection)
T1 sequence (Q61180 with tags, fused parts or gaps DEL206-231): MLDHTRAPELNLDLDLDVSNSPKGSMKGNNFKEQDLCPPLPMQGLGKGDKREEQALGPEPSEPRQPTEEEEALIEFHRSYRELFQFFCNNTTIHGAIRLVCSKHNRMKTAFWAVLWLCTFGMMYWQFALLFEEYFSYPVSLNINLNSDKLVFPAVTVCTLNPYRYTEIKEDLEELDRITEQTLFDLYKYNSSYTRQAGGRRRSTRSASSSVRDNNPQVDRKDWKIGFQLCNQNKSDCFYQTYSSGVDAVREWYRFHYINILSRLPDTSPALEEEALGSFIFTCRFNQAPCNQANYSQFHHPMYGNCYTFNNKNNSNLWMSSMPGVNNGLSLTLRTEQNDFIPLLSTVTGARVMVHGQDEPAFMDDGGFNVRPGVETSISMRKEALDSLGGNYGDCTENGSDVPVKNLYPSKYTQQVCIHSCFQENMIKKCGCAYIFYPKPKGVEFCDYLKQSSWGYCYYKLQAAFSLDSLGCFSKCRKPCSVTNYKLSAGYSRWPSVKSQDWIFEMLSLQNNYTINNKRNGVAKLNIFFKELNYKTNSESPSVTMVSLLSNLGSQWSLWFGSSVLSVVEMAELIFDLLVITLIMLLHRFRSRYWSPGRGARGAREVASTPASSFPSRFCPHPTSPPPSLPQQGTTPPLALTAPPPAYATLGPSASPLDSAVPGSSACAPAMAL
T1 sequence (Q9WU38 1-638): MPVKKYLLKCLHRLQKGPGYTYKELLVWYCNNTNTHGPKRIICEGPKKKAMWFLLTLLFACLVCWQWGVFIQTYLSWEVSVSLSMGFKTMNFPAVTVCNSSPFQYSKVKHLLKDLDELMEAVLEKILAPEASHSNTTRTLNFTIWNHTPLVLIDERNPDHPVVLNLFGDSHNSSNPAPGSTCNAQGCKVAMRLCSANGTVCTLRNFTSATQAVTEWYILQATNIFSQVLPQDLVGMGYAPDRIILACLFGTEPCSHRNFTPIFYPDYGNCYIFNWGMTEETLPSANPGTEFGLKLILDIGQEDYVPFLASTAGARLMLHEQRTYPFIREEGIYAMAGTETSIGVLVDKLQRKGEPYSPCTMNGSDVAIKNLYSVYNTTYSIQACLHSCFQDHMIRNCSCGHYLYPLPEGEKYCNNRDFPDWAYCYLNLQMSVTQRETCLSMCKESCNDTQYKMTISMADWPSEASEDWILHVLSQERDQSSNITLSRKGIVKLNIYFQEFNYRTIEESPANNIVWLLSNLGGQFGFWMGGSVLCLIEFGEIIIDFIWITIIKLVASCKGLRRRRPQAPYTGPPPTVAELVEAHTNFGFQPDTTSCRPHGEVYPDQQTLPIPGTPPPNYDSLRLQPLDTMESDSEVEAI
T1 sequence (Q9WU39 1-655): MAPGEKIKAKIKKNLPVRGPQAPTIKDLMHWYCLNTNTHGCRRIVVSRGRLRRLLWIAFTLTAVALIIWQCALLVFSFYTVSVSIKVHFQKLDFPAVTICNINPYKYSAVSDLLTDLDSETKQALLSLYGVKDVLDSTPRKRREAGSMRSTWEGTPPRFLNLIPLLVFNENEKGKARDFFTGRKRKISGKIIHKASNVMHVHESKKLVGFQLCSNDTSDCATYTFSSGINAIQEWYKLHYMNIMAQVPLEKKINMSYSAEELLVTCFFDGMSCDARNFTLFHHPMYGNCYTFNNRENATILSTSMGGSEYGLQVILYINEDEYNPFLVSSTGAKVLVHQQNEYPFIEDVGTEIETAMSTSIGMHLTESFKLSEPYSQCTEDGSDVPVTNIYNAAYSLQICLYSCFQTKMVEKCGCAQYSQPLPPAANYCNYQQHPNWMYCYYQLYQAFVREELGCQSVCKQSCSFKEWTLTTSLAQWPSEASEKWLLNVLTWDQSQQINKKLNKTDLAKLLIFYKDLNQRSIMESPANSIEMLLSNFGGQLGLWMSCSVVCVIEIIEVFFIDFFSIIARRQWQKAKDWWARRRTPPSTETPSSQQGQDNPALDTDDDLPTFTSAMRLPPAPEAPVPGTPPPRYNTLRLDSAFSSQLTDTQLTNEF
Assay: Single channel cell-attached patch clamp in oocytes expressing wild-type ENaC, pipette back filled with peptide
Format: cell-based
Method: Single Channel Studies—Bath and pipette solutions contained (in mM) 110 LiCl, 2 CaCl2, 2 KCl, and 10 Hepes, pH 7.4. Experiments were performed as previously described (Carattino, M. D., Sheng, S., and Kleyman, T. R. (2005), Mutations in the pore region modify epithelial sodium channel gating by shear stress, J Biol. Chem. 280, 4393-4401 33). Single channel currents were recorded in the cell-attached configuration of patch clamp, acquired at 5 kHz and filtered at 1 kHz by a 4-pole low pass Bessel filter. Single channel currents were further filtered at 100-200 Hz with a Gaussian filter for display and analysis. Recordings were performed at an applied pipette potential of +60 mV.
For experiments performed with α-26, the tip of the pipette was filled with standard patch solution. Pipette resistances were similar in control (7.8±0.4 MΩ) and α-26-treated patches (6.9±0.6 MΩ) (p=0.30, unpaired t test). […] Unitary currents, at an applied pipette potential of +60 mV, were similar in both control (0.42±0.2 pA, n=5) and α-26-containing patches (0.39±0.2 pA, n=7) (p=0.32, unpaired t test). […] At the beginning of the experiment open times were similar to that observed in controls (FIG. 4B). Over the course of the experiment openings decreased and were shorter in duration compared with control until channels were fully closed. […]

“Ac-DLRGALPHPLQRLRTPPPPNPARSAR-NH2 [α-26]” was tested, and the unitary currents (applied pipette potential +60 mV, α-26 10 μM in pipette) was 0.39±0.2 pA and the “product of the number of channels and open probability (NPo) compared with controls” value (pipette backfilled with α-26 10 μM) was “reduces ENaC open probability; also recorded: reduction”.
